According to ChEMBL document CHEMBL5729163, “Substituted cyclohexyl compounds as NOP inhibiiors” (2022):
pIC50: −log10 of the molar value.

Biological target: Nociceptin receptor (Homo sapiens, UniProt P41146)
Experiment: Cell-Based NOP Assay: Formula (I) compounds were tested for antagonism of the nociceptin receptor (NOP) in a cell-based cAMP assay, using the LANCE cAMP Detection Kit, Perkin Elmer (Waltham, Mass.). This assay (LANCE cAMP) is a homogeneous, time-resolved fluorescence resonance energy transfer (TR-FRET) immunoassay designed to measure cAMP produced upon modulation of adenylyl cyclase activity by G protein-coupled receptors (GPCRs).ProtocolCells expressing human opioid NOP (ValiScreen cell line, cat #ES-230-C Perkin Elmer (Waltham, Mass.) were dispensed in simulation buffer (5 mM Hepes, 0.1% BSA, 0.5 mM IBMX in Hanks Buffered Saline Solution) at 2.5 μL cells per well (400 cells/well) into a 1536 white TC-treated assay plate. Compound was then added and plates were incubated for 15 minutes at room temperature. To each well was added 2.5 μL of a solution containing forskolin (3 μM final) and nociceptin peptide (390 pM final) diluted in stimulation buffer, and the plates were incubated for 30 minutes at room temperature. To each well was dispensed 5 μL of LANCE Ultra detection (1:300 dilution of anti-cAMP ULight with a 1:100 dilution of Eu-cAMP tracer diluted in cAMP Detection Buffer) reagent, and the plates were incubated for 1 hr at room temperature. The plate was then read on the ViewLux microplate reader (Perkin Elmer, Waltham, Mass.) using the LANCE 1536 protocol with 60 second exposure times and 50 μs delay. This protocol has an excitation wavelength of 340 nm (DUG11 filter) and emission wavelengths of 615 nm (Eu-Donor) and 665 nm (Alexa 647 cAMP antibody acceptor).Data AnalysisData was analyzed, normalized, and visualized using ACAS (John McNeil & Co.). Efficacy was calculated using activity of the vehicle (DMSO) as 0% efficacy and the activity of the corresponding reference positive control (SCH 221510, Tocris Bioscience (Pittsburgh, Pa.), Catalog number 3240) as 100% efficacy. Activity was calculated as the ratio of donor and acceptor emissions. All curve fits and IC50 determinations were performed using a non-linear regression model. The IC50 value was measured as the concentration at which half-maximal response was calculated.

Chain of Nociceptin receptor (P41146 whole entry): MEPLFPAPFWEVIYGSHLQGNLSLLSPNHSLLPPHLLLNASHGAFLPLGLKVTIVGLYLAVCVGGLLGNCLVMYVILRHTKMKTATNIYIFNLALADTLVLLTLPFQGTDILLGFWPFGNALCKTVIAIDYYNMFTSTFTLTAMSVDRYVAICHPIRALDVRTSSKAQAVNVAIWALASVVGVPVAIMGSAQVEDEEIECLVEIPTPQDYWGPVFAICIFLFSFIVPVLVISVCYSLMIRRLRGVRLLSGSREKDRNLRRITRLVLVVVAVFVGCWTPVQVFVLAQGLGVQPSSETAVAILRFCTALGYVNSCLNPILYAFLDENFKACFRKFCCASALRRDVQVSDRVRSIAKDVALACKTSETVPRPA

Compound	pIC50
OCC1(NCC[C@H]2CC[C@@H](c3ccc(F)cc3Cl)CC2)CCOCC1	8.00 to 9.00
O=C1C[C@@H](NCC[C@H]2CC[C@@H](c3ncc(F)cc3Cl)CC2)CCN1	7.00 to 8.00
COCC1(NCC[C@H]2CC[C@@H](c3ccc(F)cc3Cl)CC2)CCOCC1	8.00 to 9.00
O=C1CC(NCC[C@H]2CC[C@@H](c3ccc(F)cc3Cl)CC2)CCN1 (stereo partly specified)	> 9.00
Cc1c(C#N)cccc1[C@H]1CC[C@H](CCNC2CCOCC2)CC1	6.00 to 7.00
Cc1cc(F)ccc1[C@H]1CC[C@@H](CCNC2CCOCC2)CC1	> 9.00
Cc1cccnc1[C@H]1CC[C@@H](CCNC2CCOCC2)CC1	7.00 to 8.00
Fc1cc(Cl)ccc1C1CCC(CCNC2CCCCC2)CC1 (stereo unspecified)	8.00 to 9.00
Cc1cc(F)c(F)cc1[C@H]1CC[C@@H](CCN[C@@H]2CCNC(=O)C2)CC1	8.00 to 9.00
Cc1cc(F)ccc1C1CCC(CCNC2CCCC2)CC1 (stereo unspecified)	8.00 to 9.00
CC1(NCCC2CCC(c3ccccc3Cl)CC2)CCCC1 (stereo unspecified)	6.00 to 7.00
Fc1cccc(Cl)c1C1CCC(CCNC2CCCCC2)CC1 (stereo unspecified)	8.00 to 9.00
Fc1ccc(C2CCC(CCNC3CCCC3)CC2)c(F)c1 (stereo unspecified)	7.00 to 8.00
CC(=O)N1CCC(NCC[C@H]2CC[C@@H](c3ccc(F)cc3Cl)CC2)C1 (stereo partly specified)	7.00 to 8.00
CNC(=O)C1(NCC[C@H]2CC[C@@H](c3ccc(F)cc3C(F)(F)F)CC2)CCOCC1	8.00 to 9.00
Cc1ccncc1[C@H]1CC[C@H](CCNC2CCOCC2)CC1	6.00 to 7.00
NC(=O)C1(NCC[C@H]2CC[C@@H](c3ccc(F)cc3Cl)CC2)CCOCC1	8.00 to 9.00
Cc1cccnc1C1CCC(CCNC2CCCC2)CC1 (stereo unspecified)	6.00 to 7.00
CN1CCC(NCCC2CCC(c3c(F)cccc3Cl)CC2)CC1 (stereo unspecified)	6.00 to 7.00
NC(=O)C1(NCC[C@H]2CC[C@@H](c3ncccc3Cl)CC2)CCOCC1	6.00 to 7.00
NC(=O)C1(NCC[C@H]2CC[C@@H](c3ccc(F)cc3F)CC2)CCOCC1	7.00 to 8.00

Compound	pIC50
CC1(NCCC2CCC(c3cc(F)ccc3Cl)CC2)CCCC1 (stereo unspecified)	6.00 to 7.00
Fc1cccc(Cl)c1C1CCC(CCNC2CCCC2)CC1 (stereo unspecified)	8.00 to 9.00
CC1(NCCC2CCC(c3ncccc3Cl)CC2)CCOCC1 (stereo unspecified)	6.00 to 7.00
NC(=O)C1(NCC[C@H]2CC[C@H](c3ccc(F)cc3C(F)(F)F)CC2)CCOCC1	7.00 to 8.00
Fc1ccc(C2CCC(CCNC3CCCCC3)CC2)c(F)c1 (stereo unspecified)	7.00 to 8.00
Fc1cnc([C@H]2CC[C@H](CCNC3CCOCC3)CC2)c(Cl)c1	8.00 to 9.00
NC(=O)C1(NCC[C@H]2CC[C@H](c3c(F)cc(F)cc3Cl)CC2)CCOCC1	8.00 to 9.00
NC(=O)C1(NCC[C@H]2CC[C@H](c3cccc(F)c3Cl)CC2)CCOCC1	6.00 to 7.00
Fc1cc(Cl)ccc1C1CCC(CCNC2CCCC2)CC1 (stereo unspecified)	7.00 to 8.00
CN(C)C(=O)C1(NCC[C@H]2CC[C@@H](c3ccc(F)cc3Cl)CC2)CCCC1	6.00 to 7.00
CC1(NCCC2CCC(c3ccc(F)cc3F)CC2)CCCC1 (stereo unspecified)	6.00 to 7.00
CNC(=O)C1(NCC[C@H]2CC[C@@H](c3ccc(F)cc3F)CC2)CCOCC1	7.00 to 8.00
CC(=O)N1CCC(NCCC2CCC(c3ccc(Cl)cc3F)CC2)CC1 (stereo unspecified)	6.00 to 7.00
COCC1(NCC[C@H]2CC[C@@H](c3ncc(F)cc3Cl)CC2)CCOCC1	7.00 to 8.00
CC1(NCCC2CCC(c3ccccc3Cl)CC2)CCOCC1 (stereo unspecified)	6.00 to 7.00
O=C1C[C@@H](NCC[C@H]2CC[C@@H](c3ccc(F)cc3Cl)CC2)CCN1	8.00 to 9.00
Fc1ccc([C@H]2CC[C@@H](CCNC3CCCC3)CC2)c(Cl)c1	> 9.00
Cc1cccnc1C1CCC(CCNC2CCCCC2)CC1 (stereo unspecified)	6.00 to 7.00
CN1CCC(NCC[C@H]2CC[C@@H](c3ccc(F)cc3Cl)CC2)CC1=O (stereo partly specified)	7.00 to 8.00
CNC(=O)C1(NCC[C@H]2CC[C@H](c3ccc(F)cc3C(F)(F)F)CC2)CCOCC1	8.00 to 9.00
CNC(=O)C1(NCCC2CCC(c3ncc(F)cc3Cl)CC2)CCCC1 (stereo unspecified)	7.00 to 8.00

Now from value to molecule:

pIC50	Compound
8.00 to 9.00	Fc1cccc(Cl)c1[C@H]1CC[C@H](CCNC2CCOCC2)CC1
6.00 to 7.00	NC(=O)C1(NCC[C@H]2CC[C@H](c3ncccc3Cl)CC2)CCOCC1
6.00 to 7.00	O=C1C[C@@H](NCC[C@H]2CC[C@H](c3ncc(F)cc3Cl)CC2)CCN1
8.00 to 9.00	Fc1ccc(Cl)c(C2CCC(CCNC3CCOCC3)CC2)c1 (stereo unspecified)
8.00 to 9.00	CCNC(=O)C1(NCC[C@H]2CC[C@@H](c3ncc(F)cc3Cl)CC2)CCOCC1
8.00 to 9.00	CNC(=O)C1(NCC[C@H]2CC[C@@H](c3ncc(F)cc3Cl)CC2)CCOCC1
6.00 to 7.00	NC(=O)C1(NCC[C@H]2CC[C@@H](c3ccc(F)cc3Cl)CC2)CCCOC1 (stereo partly specified)
7.00 to 8.00	Cc1c(F)c(F)ccc1[C@H]1CC[C@@H](CCNC2(C(N)=O)CCOCC2)CC1
6.00 to 7.00	NC(=O)C1(NCC[C@H]2CC[C@@H](c3ccc(F)cc3Cl)CC2)CCOC1 (stereo partly specified)
7.00 to 8.00	CC1(NCC[C@H]2CC[C@H](c3ncc(F)cc3Cl)CC2)CCNC(=O)C1 (stereo partly specified)
6.00 to 7.00	Oc1cccc([C@H]2CC[C@@H](CCNC3CCOCC3)CC2)c1
8.00 to 9.00	Fc1cc(Cl)ccc1C1CCC(CCNC2CCOCC2)CC1 (stereo unspecified)
> 9.00	Fc1cccc(Cl)c1[C@H]1CC[C@@H](CCNC2CCOCC2)CC1
6.00 to 7.00	O=C(NCC1CC1)C1(NCC[C@H]2CC[C@@H](c3ccc(F)cc3Cl)CC2)CCCC1
8.00 to 9.00	O=C1C[C@H](NCC[C@H]2CC[C@H](c3ncc(F)cc3Cl)CC2)CCN1
7.00 to 8.00	CNC(=O)C1(NCC[C@H]2CC[C@H](c3c(F)cncc3Cl)CC2)CCOCC1
7.00 to 8.00	Fc1cnc(C2CCC(CCNC3(C4CC4)CCOCC3)CC2)c(Cl)c1 (stereo unspecified)
7.00 to 8.00	Cc1cc(F)ccc1C1CCC(CCNC2(C)CCCC2)CC1 (stereo unspecified)
> 9.00	O=C1C[C@H](NCC[C@H]2CC[C@@H](c3ccc(F)cc3Cl)CC2)CCN1
7.00 to 8.00	CC(=O)N1CCC(NCC[C@H]2CC[C@@H](c3ccc(F)cc3Cl)CC2)CC1

pIC50	Compound
7.00 to 8.00	CC1(NCCC2CCC(c3c(F)cccc3Cl)CC2)CCCC1 (stereo unspecified)
8.00 to 9.00	O=C1NCCC1NCC[C@H]1CC[C@@H](c2ccc(F)cc2Cl)CC1 (stereo partly specified)
6.00 to 7.00	NC(=O)C1(NCC[C@H]2CC[C@H](c3ccc(F)cc3F)CC2)CCOCC1
6.00 to 7.00	Cc1cccnc1C1CCC(CCNC2(C)CCCC2)CC1 (stereo unspecified)
> 9.00	Fc1ccc(C2CCC(CCN[C@H]3CC[C@@H](F)C3)CC2)c(Cl)c1 (stereo partly specified)
8.00 to 9.00	CNC(=O)C1(NCC[C@H]2CC[C@H](c3ccc(F)cc3F)CC2)CCOCC1
6.00 to 7.00	NC(=O)C1(NCC[C@H]2CC[C@@H](c3cccc(F)c3Cl)CC2)CCOCC1
7.00 to 8.00	CC1(NCC[C@H]2CC[C@@H](c3ccc(F)cc3Cl)CC2)CCNC(=O)C1 (stereo partly specified)
7.00 to 8.00	Clc1cccnc1[C@H]1CC[C@H](CCNC2CCOCC2)CC1
6.00 to 7.00	CNC(=O)C1(NCCC2CCC(c3ncccc3Cl)CC2)CCCC1 (stereo unspecified)
6.00 to 7.00	CN1CCC(NCCC2CCC(c3ccc(Cl)cc3F)CC2)CC1 (stereo unspecified)
8.00 to 9.00	CNC(=O)C1(NCC[C@H]2CC[C@@H](c3ccc(F)cc3Cl)CC2)CCCC1
6.00 to 7.00	NC(=O)C1(NCCC2CCC(c3cc(F)ccc3Cl)CC2)CCCC1 (stereo unspecified)
8.00 to 9.00	CCNC(=O)C1(NCC[C@H]2CC[C@@H](c3ccc(F)cc3Cl)CC2)CCOCC1
8.00 to 9.00	Fc1cnc(C2CCC(CCNC3CCCCC3)CC2)c(Cl)c1 (stereo unspecified)
> 9.00	Fc1cnc([C@H]2CC[C@@H](CCNC3CCOCC3)CC2)c(Cl)c1
6.00 to 7.00	NC(=O)C1(NCC[C@H]2CC[C@@H](c3c(F)cc(F)cc3F)CC2)CCOCC1
7.00 to 8.00	Fc1cccc(C2CCC(CCNC3CCCCC3)CC2)c1Cl (stereo unspecified)
8.00 to 9.00	NC(=O)C1(NCC[C@H]2CC[C@@H](c3ccc(F)cc3C(F)(F)F)CC2)CCOCC1
